The record followed here is ChEMBL document CHEMBL1201862, “PubChem BioAssay data set” (2004).

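In this assay, cells in 96-well plates receive the compound at five concentrations for 48 hours. Endpoints are linearly interpolated between the surrounding concentrations. GI50: concentration for 50% inhibition of growth.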 Activity calls are given as the source filed them. Rule as the data show it: active = GI50 up to about 1.1 µM and inactive = higher.

What all share (assay): growth of human tumour cells (NCI), 48 h
Assay [1] deals with 786-0.
Assay [2] deals with A498.
The subject of assay [3] is CCRF-CEM.
In assay [4] the test system is DU-145.
For assay [5], the system named is HCC 2998.
The subject of assay [6] is HCT-116.
Assay [7] deals with HCT-15.
Assay [8] relates to HOP-92.
For assay [9], the system named is HT-29.
The subject of assay [10] is K562.
The subject of assay [11] is KM12.
The subject of assay [12] is LOX IMVI.
Assay [13] relates to NCI-H226.
Assay [14] deals with NCI-H23.
In assay [15] the test system is NCI/ADR-RES.
The test system of assay [16] is SF-295.
For assay [17], the system named is SNB-19.
For assay [18], the system named is SR.
The subject of assay [19] is T47D.
Assay [20] deals with UACC-62.

On to `COc1ccc(Cc2n[nH]c(Nc3ccc(Br)cc3)nc2=O)cc1OC`, for which the GI50 in assay [1] is > 100 µM (inactive); in assay [2], > 100 µM (inactive); in [3], 59.2 µM (inactive); in assay [4], > 100 µM (inactive); in assay [5], > 88.1 µM (inactive); in [6], 64.3 µM (inactive). For the same molecule, the GI50 in assay [7] is > 100 µM; in [8], > 100 µM (inactive); in assay [9] it was > 100 µM (inactive); in [10], 44.9 µM (inactive); in assay [11] it was 36.6 µM (inactive); in [12] it was 69.5 µM (inactive). For the same molecule, the GI50 in assay [13] is > 100 µM (inactive); in assay [14], > 100 µM (inactive); in [15], > 100 µM (inactive); in assay [16], > 100 µM (inactive); in assay [17] it was > 100 µM (inactive); in [18], 30.3 µM (inactive). The GI50 in [19] was 94.2 µM (inactive); in [20] it was 65.8 µM (inactive).
